In patent publication US20200071316A1, “ACTIVATORS OF THE RETINOIC ACID INDUCIBLE GENE "RIG-I" PATHWAY AND METHODS OF USE THEREOF” (Kineta Immuno-Oncology LLC, priority 2018, published 2020):
Marks after values point to notes of the source that are not given here.

Key:
[1] = test system: IRF3 signaling pathway (IRF-inducible ISG54 promotor) in THP1-Lucia ISG cells; assay: THP1-Lucia ISG reporter assay: induction of IRF3-dependent luciferase activity; assay type: cell-based; conditions: Homo sapiens, PMA-differentiated cells, 18 h after stimulation, read-out: THP1 ISG: fold increase of IRF3-dependent luciferase activity over background; for fold induction at 10 µM: 10 μM compound
Method in brief: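 PMA-differentiated (100 ng/ml) reporter cells, parental and IRF3−/−, stimulated with compounds at 5–20 μM (mostly 10 μM). Secreted luciferase measured 18 h later. Scored as fold increase over untreated background in bands from "−" (<2.4-fold) to "+++++" (≥40-fold).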

[2] = test system: RIG-I deficient CT26 RIG-1−/− cells; assay: CXCL10 secretion in RIG-I deficient CT26 RIG-1−/− cells (ELISA); assay type: cell-based, murine; conditions: 24 h
Method in brief: (§1)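 Murine CT26 colon carcinoma cells, and CRISPR-generated RIG-I knockout CT26 cells, were seeded at 1×10^4 cells/well and grown 24 h at 37 °C, 5% CO2, then treated with compounds at 5 to 20 μM. CXCL10 in supernatants was measured by ELISA 24 h after stimulation.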

[3] = test system: THP1-Lucia ISG IRF3 −/− cells; assay: IRF3-deficient THP1-Lucia ISG IRF3 −/− reporter assay (counter-screen); assay type: cell-based; conditions: Homo sapiens, 18 h after stimulation, read-out: THP1 ISG IRF3 −/−: fold increase of luciferase activity over background; for fold induction at 10 µM: 10 μM compound; for fold induction at 5 µM: 5 μM compound (**)
Method in brief: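 PMA-differentiated (100 ng/ml) reporter cells carrying ISRE/ISG54 minimal promoter-driven secreted luciferase were stimulated with compounds at 5–20 μM (mostly 10 μM). Luciferase measured 18 h later and expressed as fold increase over untreated background, binned from "−" (<2.4-fold) to "+++++" (≥40-fold).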

[4] = test system: CXCL10 secretion by CT26 cells; assay: RIG-I dependent CXCL10 secretion by CT26 colon carcinoma cells (ELISA); assay type: cell-based, murine; conditions: 24 h
Method in brief: as §1

SMILES | fold induction at 10 µM [1] | CXCL10 secretion by CT26 RIG-I −/− cells ([2]; 10 μM compound) | fold induction at 10 µM [3] | CXCL10 secretion by CT26 cells ([4]; 10 μM compound) | fold induction at 5 µM ([1]; 5 μM compound (**)) | CXCL10 secretion by CT26 RIG-I −/− cells ([2]; 5 μM compound (**)) | fold induction at 5 µM [3] | CXCL10 secretion by CT26 cells ([4]; 5 μM compound (**)) | fold induction at 20 µM ([1]; 20 μM compound (*)) | CXCL10 secretion by CT26 RIG-I −/− cells ([2]; 20 μM compound (*)) | CXCL10 secretion by CT26 cells ([4]; 20 μM compound (*))
O=C(Nc1nc2ccc(OCC(F)(F)F)cc2s1)c1ccc2ccccc2c1 [Example 5, N-[6-(2,2,2-trifluoroethoxy)-1,3-benzothiazol-2-yl]naphthalene-2-carboxamide] | 2.4 to 4.9 | − (“−” indicates less than 100 pg/mL) | < 2.4 | +++ (“+++” indicates 400-799 pg/mL) |  |  |  |  |  |  | 
O=C(Nc1nc2ccc(S(=O)(=O)N3CCC(O)C3)cc2s1)c1cc2ccccc2cc1OCCCCN1CCOCC1 (stereo not drawn) [Example 57, N-{6-[(3-hydroxypyrrolidin-1-yl)sulfonyl]-1,3-benzothiazol-2-yl}-3-[4-(morpholin-4-yl)butoxy]naphthalene-2-carboxamide] | 10 to 19 | − (“−” indicates less than 100 pg/mL) | < 2.4 | +++ (“+++” indicates 400-799 pg/mL) |  |  |  |  |  |  | 
O=C(Nc1ccccn1)c1ccc2nc(NC(=O)c3ccc4ccccc4c3)sc2c1 [Example 14, 2-(naphthalene-2-amido)-N-(pyridin-2-yl)-1,3-benzo-thiazole-6-carboxamide] | 20 to 39 | − (“−” indicates less than 100 pg/mL) | < 2.4 | ++++ (“++++” indicates 800 to 1599 pg/mL) |  |  |  |  |  |  | 
CS(=O)(=O)c1ccc2nc(NC(=O)c3ccc4ccccc4c3)sc2c1 [Example 1, N-(6-methanesulfonyl-1,3-benzothiazol-2-yl)naphthalene-2-carboxamide] | 10 to 19 | − (“−” indicates less than 100 pg/mL) | < 2.4 | ++++ (“++++” indicates 800 to 1599 pg/mL) |  |  |  |  |  |  | 
O=C(Nc1cc2ccc(S(=O)(=O)N3CCCC3)cc2s1)c1ccc(-c2ccccc2)cc1OCCCCN1CCOCC1 [Example 68, 3-[4-(morpholin-4-yl)butoxy]-N-[6-(pyrrolidine-1-sulfonyl)-1-benzothiophen-2-yl]-[1,1′-biphenyl]-4-carboxamide] | 20 to 39 | − (“−” indicates less than 100 pg/mL) | < 2.4 | ++++ (“++++” indicates 800 to 1599 pg/mL) |  |  |  |  |  |  | 
O=C(Nc1nc2ccc(S(=O)(=O)N3CCCC3)cc2s1)c1cc2ccsc2cc1OCCCCN1CCOCC1 [Example 42, 6-[4-(morpholin-4-yl)butoxy]-N-[6-(pyrrolidine-1-sulfonyl)-1,3-benzothiazol-2-yl]-1-benzothiophene-5-carboxamide] | 5 to 9.9 | − (“−” indicates less than 100 pg/mL) | < 2.4 | ++++ (“++++” indicates 800 to 1599 pg/mL) |  |  |  |  |  |  | 
COC(=O)c1ccc2nc(NC(=O)c3cc4ccccc4cc3OCCCCN3CCOCC3)sc2c1 [Example 66, methyl 2-{3-[4-(morpholin-4-yl)butoxy]naphthalene-2-amido}-1,3-benzothiazole-6-carboxylate] |  |  |  |  | 5 to 9.9 | −** (“−” indicates less than 100 pg/mL) | < 2.4 | ++** (“++” indicates 200-399 pg/mL) |  |  | 
N#Cc1ccc2nc(NC(=O)c3cc4ccccc4cc3OCCCCN3CCOCC3)sc2c1 [Example 25, N-(6-cyano-1,3-benzothiazol-2-yl)-3-[4-(morpholin-4-yl)butoxy]naphthalene-2-carboxamide] |  |  |  |  |  |  | < 2.4 |  | 2.4 to 4.9 | −* (“−” indicates less than 100 pg/mL) | +* (“+” indicates 100-199 pg/mL)
CS(=O)(=O)c1ccc2nc(NC(=O)c3cc4ccccc4cc3OCCCCN3CCOCC3)sc2c1 [Example 45, N-(6-methanesulfonyl-1,3-benzothiazol-2-yl)-3-[4-(morpholin-4-yl)butoxy]naphthalene-2-carboxamide] | 5 to 9.9 | − (“−” indicates less than 100 pg/mL) | < 2.4 | ++++ (“++++” indicates 800 to 1599 pg/mL) |  |  |  |  |  |  | 
